Entries after “also recorded” stand apart in the source; their conditions may differ. One block for each molecule: values may come before it.
Assays:
[1] = system: rat ventricular cardiomyocytes; experiment: Ca2+ transient and cell shortening (sarcomere length, indo-1) under field stimulation; type: cell-based; conditions: co-incubation; for effect on reduction of cell shortening and Ca2+ transient amplitude induced by N-Shh: Ccl 30 μM, LY 25 μM, L-NNA 100 μM
[2] = system: rat ventricular cardiomyocytes; experiment: Action potential recording, whole-cell patch clamp; type: cell-based; conditions: for effect on APD reduction induced by N-Shh: glibenclamide 1 μM acute, L-NNA, ODQ
Protocol: Whole-cell patch-clamp experiments were performed at room temperature (22-24° C.) with an Axopatch 200B (Axon instrument, Burlingham, Calif., USA). Patch pipettes had resistance of 2 MΩ. Currents were normalized to the cell membrane capacitance (pA/pF). Series resistances were compensated before recordings.
To record APs, pipettes solution contained (in mM): KCl (130), HEPES (25), ATP(Mg) (3), GTP(Na) (0.4), EGTA (0.5); pH 7.2 (KOH). Bathing solution contained (in mmol/L): NaCl (135), MgCl2 (1), KCl (4), Glucose (11), HEPES (2), CaCl2 (1.8); pH 7.4 (NaOH). APs were elicited by 0.2 ms current injection of supra-threshold intensity. During experiments, cells were stimulated by trains of 30 stimuli at 0.5 Hz.

[3] = system: rat ventricular cardiomyocytes; experiment: Nitric oxide (NO) measurement, DAF fluorescence in cardiomyocytes; type: cell-based
[4] = molecular target: T1, ATP-dependent potassium current (IKATP) (Rattus norvegicus, UniProt P70673+Q63563); experiment: Glibenclamide-sensitive K+ current (IKATP), voltage clamp; type: cell-based
T1 construct: endogenous in cells; host or cells: isolated adult rat ventricular cardiomyocytes

[5] = system: rat model of ischemia reperfusion; experiment: Infarct size (infarcted area relative to area at risk) 24 h after reperfusion; type: in vivo; conditions: cyclopamine with N-Shh
Protocol: The rats were subjected to 30 min ischemia followed by reperfusion. The reperfusion injuries were histologically evaluated at 24 h after reperfusion by measuring the infarcted area relative to the area at risk (FIG. 9). Fifteen minutes prior to reperfusion, one group of rats received intravenous (iv) injection of the recombinant Shh homolog ligand (N-ShhH, 25 μg·kg^−1), the second group received N-Shh and the Shh receptor (patch/smoothened) antagonist cyclopamine (N-Shh+Ccl, 30 μmol/L) and the third one the vehicle (control). […] Considering that the cardio-protective effects are observed within a short time after reperfusion (i.e. <24 h), it is unlikely that they are mediated by a neoangiogenesis and/or mobilization of progenitor cells (Kusano K F, Pola R, Murayama T, Curry C, Kawamoto A, Iwakura A, Shintani S, Ii M, Asai J, Tkebuchava T, Thorne T, Takenaka H, Aikawa R, Goukassian D, von Samson P, Hamada H, Yoon Y S, Silver M, Eaton E, Ma H, Heyd L, Kearney M, Munger W, Porter J A, Kishore R and Losordo D W. Sonic hedgehog myocardial gene therapy: tissue repair through transient reconstitution of embryonic signaling. Nat Med. 2005; 11:1197-204. […]

[6] = system: rat model of ischemia reperfusion; experiment: ECG (QTc, ventricular arrhythmias) after 30 min ischemia and 24 h reperfusion; type: in vivo
Protocol: (§1) Rats were implanted with DSI PhysioTel™ Transmitter (CTA-F40, Data Sciences International, Saint-Paul, Minn., USA), fifteen days before starting experiments. After recovery, ECGs were recorded by using a signal transmitter-receiver (RPC-1; DSI) connected to a data acquisition system (IOX2; EMKA Technologies). The data were collected continuously at a sampling rate of 1,000 Hz. Thus, ECGs were recorded in rats before and 6 hours after i.v. injection of Shh, Shh and hexamethonium, MPs, Shh and cyclopamine, Shh and glibenclamide. ECGs were also monitored 24 h before ischemia, during ischemia and 24 h after reperfusion. Continuous digital recordings were analyzed offline by using the software ECG-auto (ver 1.5.12.22, EMKA Technologies). ECG signals were digitally filtered between 0.1 and 1,000 Hz. The heart rate and QT interval were measured. The QT interval was defined as the time between the first deviation from an isoelectric PR interval until the return of the ventricular repolarisation to the isoelectric TP baseline from lead II ECGs. […]
The rats were subjected to 30 min ischemia followed by reperfusion. The reperfusion injuries were histologically evaluated at 24 h after reperfusion by measuring the infarcted area relative to the area at risk (FIG. 9). […]

rats = experiment: Telemetric ECG, QTc interval before and 6 hours after i.v. injection; type: in vivo, rat; conditions: given with Shh
Protocol: as §1, with “ECGs. The QT interval is dependent on the heart rate, therefore, QT interval should be corrected to take into account potential changes in RR interval. The QT correction was performed according to the Bazett's: formula:” for “ECGs.”
where QTB is the QT interval corrected for heart rate, and RR is the interval from the onset of one QRS complex to the onset of the next QRS complex.

[7] = system: rat model of ischemia reperfusion; experiment: Left ventricular fibrosis, Masson trichrome histology 24 h after reperfusion; type: in vivo
Protocol: Thin sections (5 μm) were prepared from the rat left ventricles and stained with Haematoxylin-Eosin (HE) and Masson trichrome (MT) for light microscopy (10×). The thickening of the myocardium was estimated on the HE-stained heart sections, and the presence of collagen was analyzed on the MT-stained ventricle sections.

T1 sequence (P70673 whole entry): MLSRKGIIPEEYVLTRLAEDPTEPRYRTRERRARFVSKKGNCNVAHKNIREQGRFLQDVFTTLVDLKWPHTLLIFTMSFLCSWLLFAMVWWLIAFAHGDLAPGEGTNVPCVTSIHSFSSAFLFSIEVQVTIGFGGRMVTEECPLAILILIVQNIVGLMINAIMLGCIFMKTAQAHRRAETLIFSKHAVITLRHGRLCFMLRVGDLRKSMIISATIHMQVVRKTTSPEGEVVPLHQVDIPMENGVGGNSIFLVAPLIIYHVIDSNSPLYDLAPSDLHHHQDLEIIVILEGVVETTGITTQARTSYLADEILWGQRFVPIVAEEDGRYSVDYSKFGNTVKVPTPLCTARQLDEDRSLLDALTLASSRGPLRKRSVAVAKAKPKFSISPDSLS
T1 sequence (Q63563 whole entry): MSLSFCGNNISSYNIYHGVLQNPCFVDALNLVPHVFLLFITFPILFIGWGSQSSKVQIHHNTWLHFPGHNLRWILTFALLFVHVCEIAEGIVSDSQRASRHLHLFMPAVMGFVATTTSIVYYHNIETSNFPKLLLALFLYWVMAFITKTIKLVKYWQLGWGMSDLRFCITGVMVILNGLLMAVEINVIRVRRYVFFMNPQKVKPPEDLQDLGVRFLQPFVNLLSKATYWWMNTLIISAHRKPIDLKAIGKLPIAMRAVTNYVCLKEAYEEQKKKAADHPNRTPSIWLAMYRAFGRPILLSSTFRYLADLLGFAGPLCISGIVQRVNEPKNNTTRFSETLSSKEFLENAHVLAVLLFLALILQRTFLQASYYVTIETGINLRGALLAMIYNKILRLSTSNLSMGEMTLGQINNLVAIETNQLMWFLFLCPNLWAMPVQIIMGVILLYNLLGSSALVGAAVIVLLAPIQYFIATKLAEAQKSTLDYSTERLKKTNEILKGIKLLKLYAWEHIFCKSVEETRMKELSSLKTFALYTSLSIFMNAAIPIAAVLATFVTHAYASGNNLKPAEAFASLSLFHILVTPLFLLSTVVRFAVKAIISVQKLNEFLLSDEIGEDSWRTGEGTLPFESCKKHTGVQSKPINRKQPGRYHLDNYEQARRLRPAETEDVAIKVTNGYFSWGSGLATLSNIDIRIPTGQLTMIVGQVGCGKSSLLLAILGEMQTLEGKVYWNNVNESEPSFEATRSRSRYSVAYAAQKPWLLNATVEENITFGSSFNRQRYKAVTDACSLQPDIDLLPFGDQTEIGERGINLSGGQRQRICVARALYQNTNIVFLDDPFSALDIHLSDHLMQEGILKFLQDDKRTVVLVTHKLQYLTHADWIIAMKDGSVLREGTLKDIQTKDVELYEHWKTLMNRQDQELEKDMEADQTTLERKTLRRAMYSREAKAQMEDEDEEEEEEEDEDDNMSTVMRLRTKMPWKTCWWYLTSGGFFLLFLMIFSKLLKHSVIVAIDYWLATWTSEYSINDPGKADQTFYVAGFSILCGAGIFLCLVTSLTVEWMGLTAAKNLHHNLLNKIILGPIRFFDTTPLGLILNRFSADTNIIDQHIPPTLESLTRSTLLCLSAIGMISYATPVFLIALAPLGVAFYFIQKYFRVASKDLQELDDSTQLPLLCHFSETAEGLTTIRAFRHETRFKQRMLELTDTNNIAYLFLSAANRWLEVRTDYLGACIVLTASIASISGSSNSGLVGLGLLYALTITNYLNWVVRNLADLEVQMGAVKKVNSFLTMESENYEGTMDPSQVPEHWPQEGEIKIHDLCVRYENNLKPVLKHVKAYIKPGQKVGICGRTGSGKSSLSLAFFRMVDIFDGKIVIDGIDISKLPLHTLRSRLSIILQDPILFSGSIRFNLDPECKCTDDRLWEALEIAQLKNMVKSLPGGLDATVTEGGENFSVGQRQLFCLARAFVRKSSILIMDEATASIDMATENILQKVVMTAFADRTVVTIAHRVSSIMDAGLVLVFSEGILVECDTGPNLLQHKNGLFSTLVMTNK

effect on IKATP elicited by N-Shh [4]: blocked
SMILES: N=C(NCCC[C@H](N)C(=O)O)N[N+](=O)[O-] [L-NNA, N^ω-nitro-L-arginine]
effect on reduction of cell shortening and Ca2+ transient amplitude induced by N-Shh [1]: fully abolished | effect on APD reduction induced by N-Shh [2]: blunted | effect on N-Shh-induced NO production ([3]; co-incubation with N-Shh, L-NNA 100 μM, LY 25 μM): prevented

SMILES: O=c1onc2cnc3ccccc3n12 [ODQ, 1H-[1.2.4]oxadiazolo[4.3-a]quinoxalin-1-one]
effect on APD reduction induced by N-Shh [2]: blunted | effect on IKATP elicited by N-Shh [4]: blocked

SMILES: CC1=C2C[C@H]3[C@@H](CC=C4C[C@@H](O)CC[C@@]43C)[C@@H]2CC[C@]12O[C@@H]1C[C@H](C)CN[C@H]1[C@H]2C [cyclopamine]
effect on reduction of cell shortening and Ca2+ transient induced by shed membrane MPs ([1]; cyclopamine 30 μM): blocked | effect on reduction of cell shortening and Ca2+ transient amplitude induced by N-Shh [1]: fully abolished | effect on cardioprotective (infarct-reducing) effect of N-Shh [5]: fully abolished; also recorded: fully prevented | effect on N-Shh prevention of QTc enlargement ([6]; cyclopamine injected in addition to N-Shh): No beneficial effect; also recorded: abolished | effect on Shh reduction of ventricular arrhythmic events ([6]; cyclopamine with N-Shh): abolished | NO production (DAF fluorescence) vs control ([3]; cardiomyocytes incubated 4 h): no effect | effect on NO production induced by Shh-harboring MPs ([3]; pre-/co-incubation, cyclopamine 30 μM): prevented | effect on the reduction in QTc interval after Shh injection (rats): prevented | effect on Shh prevention of fibrosis [7]: abolished

SMILES: COc1ccc(Cl)cc1C(=O)NCCc1ccc(S(=O)(=O)NC(=O)NC2CCCCC2)cc1 [glibenclamide]
effect on APD in the absence of N-Shh treatment ([2]; acute application): no effect | effect on APD reduction induced by N-Shh [2]: prevented | effect on the reduction in QTc interval after Shh injection (rats): prevented

SMILES: C[N+](C)(C)CCCCCC[N+](C)(C)C [hexamethonium]
effect on the reduction in QTc interval after Shh injection (rats): identical
